Values quoted from earlier work, collected in US20080233128A1, “Treatment of Viral Infections” (priority 2006, published 2008).

System: circulating T-cells

alemtuzumab
time to full recovery of T-cells (after a single dose, FIG. 1): ≥ 3 months
T-cell depletion (killing of circulating T-cells) (single dose, FIG. 1, mean ALC as a function of time): kill all circulating T-cells
